Laboratory results as given in EP1787658B1, “Sustained release formulations of somatostatin analogue inhibitors of growth hormone” (CHEMI S.p.A., priority 2005, dated 2012).

Assay: Plasma levels of somatostatin analogue after a single s.c. or i.m. administration, by LC/MS-MS
Assay type: in vivo, rats
Settings: after both s.c. and i.m injection
Protocol: Two groups of animals were treated with a single administration each s.c. and i.m, of 100µl of the formulation (3.37 mg of oligopeptide equal to 15mg/Kg). Blood samples from 5 animals per time point were collected at different time points up to 49 days after treatment. The plasma levels of somatostine analogue were determined by a LC/MS-MS method.
Mean plasma, levels and standard deviations for each time point are shown in the table below (Table 2) and in Figures 1 and 2.

In the case of C[C@@H](O)[C@@H]1NC(=O)[C@H](CCCCN)NC(=O)[C@@H](Cc2c[nH]c3ccccc23)NC(=O)[C@H](Cc2ccccc2)NC(=O)[C@@H](NC(=O)[C@H](N)Cc2ccccc2)CSSC[C@@H](C(=O)N[C@H](CO)[C@@H](C)O)NC1=O [Octreotide acetate], the “presence of detectable levels of the oligopeptide” value is reported as “up to 49 days”.
